According to EP2540303A1, “Divalent cation containing compositions and methods for treating and/or preventing enzymatic irritation” (Johnson & Johnson Consumer Companies Inc., priority 2011, dated 2013):
Values joined by “and” are separate entries in the source; they are usually repeats but may differ in a detail not shown here. Identical values can stand only once.

Columns and labels:
trypsin [1] = molecular target: T1, trypsin (Bos taurus, UniProt P00760); settings: at low concentrations, i.e., around 0.001 M; cited from earlier work
T1 sequence (P00760 24-246): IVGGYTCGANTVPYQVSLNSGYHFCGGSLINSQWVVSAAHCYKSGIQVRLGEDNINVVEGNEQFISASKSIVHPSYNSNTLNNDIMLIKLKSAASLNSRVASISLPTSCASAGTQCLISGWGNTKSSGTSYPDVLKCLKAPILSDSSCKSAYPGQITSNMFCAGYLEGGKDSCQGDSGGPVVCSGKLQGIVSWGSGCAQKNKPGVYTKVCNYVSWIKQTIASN

trypsin [2] = assay: Trypsin inhibition (EnzChek protease assay kit), divalent cation salts with and without talc; type: biochemical; settings: for % synergistic activity relative to hypothetic additive value: (with talc value minus additive value) divided by additive value; for Salt alone trypsin inhibition activities (%): no talc
Method: (§1) The objective of the following experiment was to determine whether and to what extent adding a divalent cation to talc inhibited trypsin activity in an in vitro assay. The inhibition of trypsin-induced cleavage of a fluorescent casein peptide was measured using the EnzChek™ protease assay kit, following manufacturer's instructions (EnzChek™ Protease Assay Kits Product Information, Revised; Molecular Probes, Eugene OR). […] Trypsin working solution (Sigma, St. Louis, MO, unit/mL) was prepared in a portion of the digestion buffer provided in the assay kit (the digestion buffer provided in the assay kit comprises, in total, 260mL of 200nM Tris-HCl, pH7.8, containing 40mM sodium azide). Stock solution of BODIPY FL casein (the trypsin substrate, comprising a casein derivative labeled with a pH-insensitive green fluorescent protein, mg/mL) was prepared by adding 0.2 mL of phosphate buffered saline (PBS) to the substrate vials provided in kit, allowing sufficient time at room temperature for the substrate to dissolve fully (each substrate vial provided in the kit contains 200µg of BODIPY FL casein lyophilized from phosphate-buffered saline (PBS)). The final substrate working solution (10 microgram/mL) was prepared by dilution of 0.2 mL of the stock solution of BODIPY FL with 19.8 mL of digestion buffer (pH 7.8). To detect enzyme activity, 100µL of the BODIPY FL casein working solution was added to 50µL of trypsin working solution (containing 100U of trypsin) and 50µl of the solution of the required test material (if required) . Following incubation of the trypsin, with or without the test materials, with the BODIPY fluorescent casein substrate, at room temperature for one hour, fluorescence was measured (excitation 485 nm /emission 530 nm) using a SpectraMax microtiter plate reader (Molecular Devices Corporation, Sunnyvale, CA) and Softmax Pro software (Molecular Devices Corporation). Each experiment was performed in three replicates. The percentage activity is quoted with comparison to results obtained from the assay performed without the addition of a test substrate.

trypsin [3] = assay: Inhibition of trypsin-induced cleavage of fluorescent casein (EnzChek protease assay kit), salts in PBS; type: biochemical; settings: acetate monohydrate
Method: as §1, with “The” for “The objective of the following experiment was to determine whether and to what extent adding a divalent cation to talc inhibited trypsin activity in an in vitro assay. The”, “Following incubation of the trypsin, with or without the test materials, with the BODIPY fluorescent casein substrate, at room temperature for one hour, fluorescence was measured (excitation 485 nm /emission 530 nm) using a SpectraMax microtiter plate reader (Molecular Devices Corporation, Sunnyvale, CA) and Softmax Pro software (Molecular Devices Corporation). Each experiment was performed in three replicates. The percentage activity is quoted with comparison to results obtained from the assay performed without the addition of a test substrate.” left out

trypsin [4] = assay: Trypsin inhibition (EnzChek protease assay kit), zinc oxide/acid mixtures and zinc oxide containing formulations; type: biochemical; settings: Table 5
Method: The objective of the following experiment was to determine whether and to what extent adding an acid to a formulation containing zinc oxide had on inhibition of trypsin activity in an in vitro assay. The inhibition of trypsin-induced cleavage of a fluorescent casein peptide was measured using the EnzChek^TM protease assay kit, following manufacturer's instructions (EnzChek^TM Protease Assay Kits Product Information, Revised; Molecular Probes, Eugene OR). Mixtures of zinc oxide and acid at different concentrations were prepared in lx PBS (pH 7.4) and their pH was recorded as listed in the Tables 5-8. Trypsin working solution (Sigma, St. Louis, MO, unit/mL) was prepared in a portion of the digestion buffer provided in the assay kit (the digestion buffer provided in the assay kit comprises, in total, 260mL of 200nM Tris-HCl, pH7.8, containing 40mM sodium azide). Stock solution of BODIPY FL casein (the trypsin substrate, comprising a casein derivative labeled with a pH-insensitive green fluorescent proten, mg/mL) was prepared by adding 0.2 mL of phosphate buffered saline (PBS) to the substrate vials provided in kit, allowing sufficient time at room temperature for the substrate to dissolve fully (each substrate vial provided in the kit contains 200µg of BODIPY FL casein lyophilized from phosphate-buffered saline (PBS)). The final substrate working solution (10 microgram/mL) was prepared by dilution of 0.2 mL of the stock solution of BODIPY FL with 19.8 mL of digestion buffer (pH 7.8). To detect enzyme activity, 100µL of the BODIPY FL casein working solution was added to 50µL of trypsin working solution (containing 100U of trypsin) and 50 µl of the solution of the required test material (if required). Following incubation of the trypsin, with or without the test materials (50 µl), with the BODIPY fluorescent casein substrate, at room temperature for one hour, fluorescence was measured (excitation 485 nm /emission 530 nm) using a SpectraMax microtiter plate reader (Molecular Devices Corporation, Sunnyvale, CA) and Softmax Pro software (Molecular Devices Corporation). Each experiment was performed in three replicates.
For preparations, samples were diluted in lx PBS at 1:10 ratio and subjected to centrifugation at 13,200 rpm for 1 min using Eppendorf Centrifuge (Model 5415D, Eppendorf AG, Hamburg, Germany) to remove the solid formulation ingredients. The supernatants (50 µl) were used for trypsin inhibitory activity analyses as described above. For preparations, samples were diluted in 10, or 20 or 40 % ethanol and subjected to centrifugation at 13,200 rpm for 1 min using Eppendorf Centrifuge (Model 5415D, Eppendorf AG, Hamburg, Germany) to remove the solid formulation ingredients. The supernatants (50 µl) were used for trypsin inhibition assay. […] The percentage activity is quoted with comparison to results obtained from the assay performed without the addition of a test substrate.
For the above study, the results are an average of three independent experiments, wherein the samples, which were diluted at 1:10 ratio in lx PBS solutions containing 10%, 20% or 40% ethanol, were tested in triplicates.

[5] = Table 3, salt alone plus talc alone (8.55%), all at 0.1% (g/mL)
[6] = Table 4, 0.1% MgCl2 and 1% talc
[7] = Table 4, 0.5% MgCl2 and 1% talc

[Ag+] [Ag+]
inhibition of the esterase activity of trypsin (trypsin [1]): inhibited the esterase activity of trypsin

CC(=O)[O-].CC(=O)[O-].O.[Ca+2] [Calcium acetate monohydrate]
% synergistic activity relative to hypothetic additive value (trypsin [2]; Table 3, all at 0.1% (g/mL)): 3.10% | Salt alone trypsin inhibition activities (%) (trypsin [2]; Table 3, salt 0.1% (g/mL)): 15.31% | Hypothetically calculated additive value of salt and Talc trypsin inhibition activities (%) (trypsin [2]; [5]): 23.86%

[Ca+2].[Cl-].[Cl-] [Calcium chloride]
% synergistic activity relative to hypothetic additive value (trypsin [2]; Table 3, all at 0.1% (g/mL)): -0.26% | Salt alone trypsin inhibition activities (%) (trypsin [2]; Table 3, salt 0.1% (g/mL)): 17.95% | Hypothetically calculated additive value of salt and Talc trypsin inhibition activities (%) (trypsin [2]; [5]): 26.50%

CC(=O)[O-].CC(=O)[O-].O.[Cu+2] [Copper (II) acetate monohydrate]
% Trypsin inhibitory activity (trypsin [3]): 66.53% and 95.17%

[Cu+2] [Cu++]
inhibition of the esterase activity of trypsin (trypsin [1]): inhibited the esterase activity of trypsin

[Hg+2] [Hg++]
inhibition of the esterase activity of trypsin (trypsin [1]): inhibited the esterase activity of trypsin

O.O.O.O.[Cl][Fe][Cl] [Iron (II) chloride tetrahydrate]
% synergistic activity relative to hypothetic additive value (trypsin [2]; Table 3, all at 0.1% (g/mL)): -12.35% | Salt alone trypsin inhibition activities (%) (trypsin [2]; Table 3, salt 0.1% (g/mL)): 65.07% | Hypothetically calculated additive value of salt and Talc trypsin inhibition activities (%) (trypsin [2]; [5]): 73.62%

CC(=O)[O-].CC(=O)[O-].O.O.O.O.[Mg+2] [Magnesium acetate tetrahydrate]
% synergistic activity relative to hypothetic additive value (trypsin [2]; Table 3, all at 0.1% (g/mL)): 90.09% | Salt alone trypsin inhibition activities (%) (trypsin [2]; Table 3, salt 0.1% (g/mL)): 0.83% | Hypothetically calculated additive value of salt and Talc trypsin inhibition activities (%) (trypsin [2]; [5]): 9.38%

[Cl-].[Cl-].[Mg+2] [Magnesium chloride]
% synergistic activity relative to hypothetic additive value (trypsin [2]; Table 3, all at 0.1% (g/mL)): 50.75% | Salt alone trypsin inhibition activities (%) (trypsin [2]; Table 3, salt 0.1% (g/mL)): 4.75% | Hypothetically calculated additive value of salt and Talc trypsin inhibition activities (%) (trypsin [2]; [5]): 13.30% | With 1% Talc trypsin inhibition activities (%) (trypsin [2]; Table 4, 0.1% MgCl2 (g/mL) with 1% talc): 25.43% | Salt alone trypsin inhibition activities (%) (trypsin [2]; Table 4, 0.1% MgCl2 (g/mL)): 9.02% | % synergistic activity relative to hypothetical additive value (trypsin [2]; [6]): 104.42% | Hypothetically calculated additive value of salt and Talc trypsin inhibition activities (%) (trypsin [2]; [6]): 12.44% | With 1% Talc trypsin inhibition activities (%) (trypsin [2]; Table 4, 0.5% MgCl2 (g/mL) with 1% talc): 32.84% | Salt alone trypsin inhibition activities (%) (trypsin [2]; Table 4, 0.5% MgCl2 (g/mL)): 19.51% | % synergistic activity relative to hypothetical additive value (trypsin [2]; [7]): 43.22% | Hypothetically calculated additive value of salt and Talc trypsin inhibition activities (%) (trypsin [2]; [7]): 22.93% | With 1% Talc trypsin inhibition activities (%) (trypsin [2]; Table 4, 1% MgCl2 (g/mL) with 1% talc): 40.42% | Salt alone trypsin inhibition activities (%) (trypsin [2]; Table 4, 1% MgCl2 (g/mL)): 22.13% | % synergistic activity relative to hypothetical additive value (trypsin [2]; Table 4, 1% MgCl2 and 1% talc): 58.20% | Hypothetically calculated additive value of salt and Talc trypsin inhibition activities (%) (trypsin [2]; Table 4, 1% MgCl2 and 1% talc): 25.55% | trypsin inhibition (in words) (trypsin [2]; combination of talc and magnesium chloride): synergistic increase in trypsin inhibition | trypsin inhibitory activity (in words) (trypsin [2]; talc or magnesium chloride alone): moderate to low levels of trypsin inhibitory activity

CC(=O)[O-].CC(=O)[O-].[Zn+2] [Zinc acetate dihydrate]
% synergistic activity relative to hypothetic additive value (trypsin [2]; Table 3, all at 0.1% (g/mL)): -15.70% | Salt alone trypsin inhibition activities (%) (trypsin [2]; Table 3, salt 0.1% (g/mL)): 62.84% | Hypothetically calculated additive value of salt and Talc trypsin inhibition activities (%) (trypsin [2]; [5]): 71.39%

[Cl-].[Cl-].[Zn+2] [Zinc chloride]
% synergistic activity relative to hypothetic additive value (trypsin [2]; Table 3, all at 0.1% (g/mL)): -13.01% | Salt alone trypsin inhibition activities (%) (trypsin [2]; Table 3, salt 0.1% (g/mL)): 81.07% | Hypothetically calculated additive value of salt and Talc trypsin inhibition activities (%) (trypsin [2]; [5]): 89.62%

[Zn+2] [Zn++]
inhibition of the esterase activity of trypsin (trypsin [1]): to a lesser extent

[O]=[Zn] [ZnO, zinc oxide]
% Trypsin inhibitory activity (trypsin [4]; 0.1% ZnO, 0.01 % acetic acid, pH 7.28): 1.85+/-1.34% | % Trypsin inhibitory activity (trypsin [4]; 0.1% ZnO, 0.05% acetic acid, pH 6.03): 49.16+/-1.43% | % Trypsin inhibitory activity (trypsin [4]; 0.1% ZnO, No acetic acid, pH 7.61): -2.6+/-2.76% | % Trypsin inhibitory activity (trypsin [4]; 1% ZnO, 0.01 % acetic acid, pH 7.85): 15.82+/-1.68% | % Trypsin inhibitory activity (trypsin [4]; 1% ZnO, 0.05% acetic acid, pH 6.08): 58.19+/-0.73% | % Trypsin inhibitory activity (trypsin [4]; 1% ZnO, No acetic acid, pH 8.07): 5.40 +/- 1.24% | trypsin inhibitory activity (in words) (trypsin [4]; mixtures of zinc oxide and acetic acid): have trypsin inhibitory activity, which is dose-dependent | protease activity (in words) (trypsin [4]; zinc oxide without acid): minimal protease activity

CC(=O)O [acetic acid]
% Trypsin inhibitory activity (trypsin [4]; No ZnO, 0.01 % acetic acid, pH 6.84): -11.18+/-2.61% | % Trypsin inhibitory activity (trypsin [4]; No ZnO, 0.05% acetic acid, pH 4.75): 25.81+/-2.13%
